Values joined by “and” are separate entries in the source; they are usually repeats but may differ in a detail not shown here. Equal values may be shown once.

Series [1] in a line: 54-hour autosampler stability of extracted tigecycline from incurred human bone with ascorbic acid. In kind it is physicochemical. The settings on record: ascorbic acid added. The protocol: Stability tests for tigecycline in IncRB reference QC samples or incHB QC samples were conducted in 4 cycles of freeze/thaw for IncRB QC and (3 cycles for IncHB QC of −70° C./22° C.) and in standard bench top (22° C.) stability (4 hours for rat bone and 6 hours for human bone) tests. These tests occurred during sequential extraction from run 1 through run 3. Bench top stability of IncRB reference QC samples (4 hours at room temperature) and incurred human bone sample (6 hours at room temperature), and extracted tigecycline from the IncRB and incurred human reference QC samples in the autosampler at 4° C. were evaluated during the method validation. Autosampler stability of tigecycline in IncRB Group B sample (^14C) was employed as the sample pool because aliquots from IncRB Group A were exhausted from prior testing. Results were plotted as the peak area ratio against time. The 54-hour autosampler stability of incurred human bone was performed by comparing extracted samples injected immediate after extraction (baseline) with the same set of extracted samples re-injected after 54 hours of storage at 4° C., regressed with a standard curve injected immediately after extraction (baseline).

Series [2] in a line: Antibiotic bone assay (LC/MS/MS): tigecycline concentration in incurred human bone. The class given is in vivo. The method, then:
Incurred Human Bone: Incurred human bone samples were from Wyeth 3074A1-117-US clinical study. Human bone samples were from the collection of patients who received Tygacil treatment and had bone replacement surgery in 2004. All bone samples were stored at −70° C.
Preparation of incurred human bone sample (incHB) QC sample: Collected large pieces of bone (5-50 g per piece) were immersed in liquid nitrogen in a double thickness 7″×8″ Bitran S series specimen bag and the bone sample was broken into 10 mm or smaller pieces using a steel hammer on a high density polyethylene dissecting borad (11″×13″). The bone pieces were then broken into smaller (approximately 5 mm or less) pieces using a large ceramic mortar and pestle. […]
Calibrators, quality control (QC) samples, and IncRB QC sample (an incurred rat bone sample used as a QC and evaluated multiple times) were prepared as described below. Due to high concentration of oxidant(s) in human bone (incurred and control bone), which can destroy tigecycline before it can be detected after extraction, preparation of calibrators, QCs and incurred samples for human bone require addition of 120 μL of 100 mM L-ascorbic acid solution to the samples (0.1 g) and incubation for 5 minutes at room temperature before adding extraction solvent. […]

In the case of `CN(C)c1cc(NC(=O)CNC(C)(C)C)c(O)c2c1C[C@H]1C[C@H]3[C@H](N(C)C)C(O)=C(C(N)=O)C(=O)[C@@]3(O)C(O)=C1C2=O` [tigecycline, Tigecycline], the “% Difference (54 hours vs initial)” value in series [1] (54 hours at 4° C.) is listed as −0.7%. Moreover, in series [1] (incurred human bone), the “Initial Concentration immediately after extraction (replicates)” value is 261 and 258 and 270 and 269 and 218; the “Re-injected sample concentration after 54-hour at 4° C. (replicates)” value was 288 and 250 and 227 and 277 and 223. Besides, in series [1] (n = 5, incurred human bone), the “Initial Concentration immediately after extraction, Mean” value came out at 255 and the “Re-injected sample concentration after 54-hour at 4° C., Mean” value stood at 253. Also, in series [2] (24 individual samples, study 3074A1-117-US, stored approximately twenty-one months at −70° C.), the “Tigecycline concentration in incurred human bone samples” value was 492 ng/g (2×) and 550 ng/g and 665 ng/g and 431 ng/g and 628 ng/g and 269 ng/g and 290 ng/g and 335 ng/g and 238 ng/g and 240 ng/g and 433 ng/g and 560 ng/g and 362 ng/g and 491 ng/g and 595 ng/g and 258 ng/g and 323 ng/g and 421 ng/g and 411 ng/g and 626 ng/g and 281 ng/g and 439 ng/g and 794 ng/g. In series [2] (patients who received Tygacil, nominal value = mean of 3-day global inter-day validation (n = 15)), the “Inc HB QC sample concentration (incurred human bone)” value was 257 ng/g and 257^a ng/g.
